Target: T1, hT1R2/hT1R3 sweet receptor expressed in an HEK293 cell line (Homo sapiens, UniProt Q7RTX0+Q8TE23)
T1 construct: expressed in transfected cells; host or cells: HEK293 derivative, clone S-9
T1 sequence (Q8TE23 20-839): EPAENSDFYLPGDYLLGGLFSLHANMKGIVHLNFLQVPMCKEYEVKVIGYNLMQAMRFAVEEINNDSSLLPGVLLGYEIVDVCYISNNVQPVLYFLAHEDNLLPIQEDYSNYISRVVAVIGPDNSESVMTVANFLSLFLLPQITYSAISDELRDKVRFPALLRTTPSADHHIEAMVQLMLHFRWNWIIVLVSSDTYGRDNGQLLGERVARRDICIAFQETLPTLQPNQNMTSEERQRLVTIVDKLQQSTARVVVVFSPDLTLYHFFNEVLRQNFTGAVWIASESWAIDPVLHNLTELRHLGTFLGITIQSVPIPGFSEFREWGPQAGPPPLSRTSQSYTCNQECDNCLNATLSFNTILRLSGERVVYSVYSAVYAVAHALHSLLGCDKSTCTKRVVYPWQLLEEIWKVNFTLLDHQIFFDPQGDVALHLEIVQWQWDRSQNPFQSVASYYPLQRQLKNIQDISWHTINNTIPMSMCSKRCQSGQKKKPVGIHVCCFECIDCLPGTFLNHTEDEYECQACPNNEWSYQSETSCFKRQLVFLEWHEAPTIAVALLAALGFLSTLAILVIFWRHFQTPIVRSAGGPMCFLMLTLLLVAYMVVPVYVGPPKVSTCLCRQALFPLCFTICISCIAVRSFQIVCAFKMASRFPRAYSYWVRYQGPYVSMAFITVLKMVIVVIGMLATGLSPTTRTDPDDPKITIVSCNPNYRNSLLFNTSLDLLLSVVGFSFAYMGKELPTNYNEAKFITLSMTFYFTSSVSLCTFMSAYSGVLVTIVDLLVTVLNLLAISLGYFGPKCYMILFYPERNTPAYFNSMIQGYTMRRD
T1 sequence (Q7RTX0 21-852): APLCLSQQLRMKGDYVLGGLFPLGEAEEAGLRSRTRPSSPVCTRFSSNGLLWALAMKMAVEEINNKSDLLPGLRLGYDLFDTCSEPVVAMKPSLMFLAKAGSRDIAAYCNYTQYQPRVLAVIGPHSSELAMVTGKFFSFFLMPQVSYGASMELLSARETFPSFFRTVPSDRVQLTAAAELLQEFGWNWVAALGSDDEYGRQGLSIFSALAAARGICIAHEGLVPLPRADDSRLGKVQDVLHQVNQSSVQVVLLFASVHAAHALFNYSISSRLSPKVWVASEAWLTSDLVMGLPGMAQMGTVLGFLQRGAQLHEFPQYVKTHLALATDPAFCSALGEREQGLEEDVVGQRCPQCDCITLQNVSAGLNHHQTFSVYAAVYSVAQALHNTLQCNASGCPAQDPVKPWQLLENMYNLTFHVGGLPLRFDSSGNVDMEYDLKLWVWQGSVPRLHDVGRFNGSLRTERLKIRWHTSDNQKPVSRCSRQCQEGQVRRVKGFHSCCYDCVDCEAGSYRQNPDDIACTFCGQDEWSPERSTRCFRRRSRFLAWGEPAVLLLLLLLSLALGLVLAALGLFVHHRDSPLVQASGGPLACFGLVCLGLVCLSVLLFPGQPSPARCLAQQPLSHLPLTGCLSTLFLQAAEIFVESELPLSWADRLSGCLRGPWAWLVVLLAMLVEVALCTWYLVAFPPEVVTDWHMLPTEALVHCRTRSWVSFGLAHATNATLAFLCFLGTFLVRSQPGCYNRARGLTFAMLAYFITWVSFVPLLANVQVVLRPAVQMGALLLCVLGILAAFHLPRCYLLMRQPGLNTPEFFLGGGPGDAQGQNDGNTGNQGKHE
Assay: In vitro hT1R2/hT1R3 sweet taste receptor activation assay (FLIPR, dose response)
Assay type: cell-based
Details: read-out: EC50 for activation of a hT1R2/hT1R3 sweet receptor
From the text: An HEK293 cell line derivative (see Chandrashekar, J., Mueller, K. L., Hoon, M. A., Adler, E., Feng, L., Guo, W., Zuker, C. S., Ryba, N. J.,. Cel,l 2000, 100, 703-711.) that stably expresses Gα15 and hT1R2/hT1R3 (see Li, X., Staszewski, L., Xu, H., Durick, K., Zoller, M., Adler, E. Proc Natl Acad Sci USA 2002, 99, 4692-4696, and PCT Publication No. WO 03/001876) was used to identify compounds with sweet taste enhancing properties. These references are hereby incorporated herein by reference for their methods of preparing and maintaing the cell lines discussed below, and for their methods for screeing compounds that inhibit the biological receptors.
Compounds covered in this document were initially selected based on their activity on the hT1R2/hT1R3—HEK293-Gα15 cell line (Li, et al. vide supra). Activity was determined using an automated fluorometric imaging assay on a FLIPR instrument (Fluorometric Intensity Plate Reader, Molecular Devices, Sunnyvale, Calif.) (designated FLIPR assay). Cells from one clone (designated S-9 cells) were seeded into 384-well plates (at approximately 50,000 cells per well) in a medium containing DMEM Low Glucose (Invitrogen, Carlsbad, Calif.), 10% dialyzed fetal bovine serum (Invitrogen, Carlsbad, Calif.), 100 Units/ml Penicillin G, and 100 μg/ml Streptomycin (Invitrogen, Carlsbad, Calif.) (Li, et al. vide supra) see also World Patent No. WO 03/001876 A2). S-9 cells were grown for 24 hours at 37° C. S-9 cells were then loaded with the calcium dye Fluo-3AM (Molecular Probes, Eugene, Oreg.), 4 μM in a phosphate buffered saline (D-PBS) (Invitrogen, Carlsbad, Calif.), for 1 hour at room temperature. After replacement with 25 μl D-PBS, stimulation was performed in the FLIPR instrument and at room temperature by the addition of 25 μl D-PBS supplemented with different stimuli at concentrations corresponding to twice the desired final level. Receptor activity was quantified by determining the maximal fluorescence increases (using a 480 nm excitation and 535 nm emission) after normalization to basal fluorescence intensity measured before stimulation.
For dose-responses analysis, stimuli were presented in duplicates at 10 different concentrations ranging from 60 nM to 30 μM. Activities were normalized to the response obtained with 400 mM D-fructose, a concentration that elicits maximum receptor response. EC50s were determined using a non-linear regression algorithm (using a Senomyx, Inc. software), where the Hill slope, bottom asymptotes and top asymptotes were allow to vary. Identical results were obtained when analyzing the dose-response data using commercially available software for non-linear regression analysis such as GraphPad PRISM (San Diego, Calif.).

Row | Compound | EC50
1 | CCOc1ccc(NC(=S)NCc2ccco2)cc1 [Example 7, 1-(4-ethoxyphenyl)-3-(furan-2-ylmethyl)thiourea] | 1700 nM
2 | CC(C)Oc1ccc(NC(=S)NCc2ccccc2)cc1 [Example 11] | 1000 nM

Now from value to molecule:

Row | EC50 | Compound
3 | 120 nM | CC(C)Oc1ccc(NC(=S)NCc2cccs2)cc1 [Example 5, 1-(4-Isopropoxyphenyl)-3-(thiophen-2-ylmethyl)thiourea]
4 | 230 nM | CCOc1ccc(NC(=S)NCc2ccoc2)cc1 [Example 8, 1-(4-ethoxyphenyl)-3-(furan-3-ylmethyl)thiourea]
5 | 750 nM | CC(C)c1ccc(NC(=S)NCc2ccoc2)cc1 [Example 10, 1-(furan-3-ylmethyl)-3-(4-isopropylphenyl)thiourea]
6 | 2290 nM | COc1ccc(CNc2ccc(F)cc2C)cc1O [Example 13, 5-((4-fluoro-2-methylphenylamino)methyl)-2-methoxyphenol]
7 | 2320 nM | COc1ccc(CNc2c(F)cc(F)cc2F)cc1O [Example 15, 2-methoxy-5-((2,4,6-trifluorophenylamino)methyl)phenol]
8 | 2410 nM | COc1ccc(CNc2ccccc2F)cc1O [Example 16, 5-((2-fluorophenylamino)methyl)-2-methoxyphenol]
9 | 2580 nM | COc1ccc(CNc2cc(C)ccc2C)cc1O [Example 17, 5-((2,5-dimethylphenylamino)methyl)-2-methoxyphenol]
10 | 550 nM | CC(C)Oc1ccc(NC(=S)NCc2ccco2)cc1 [Example 6, 1-(4-Isopropoxyphenyl)-3-(furan-2-ylmethyl)thiourea]

Same assay, conditions: read-out: Sweet EC50

Row | Compound | EC50
11 | CCCCc1ccc(NC(=S)NCc2ccc[nH]2)cc1 [Example B34] | 5960 nM
12 | CC(C)COc1ccc(NC(=S)NCc2ccc[nH]2)cc1 [Example B33] | 5560 nM
13 | S=C(NCc1ccc[nH]1)Nc1ccc2c(c1)OCCO2 [Example B17] | 310 nM
14 | CCOc1ccc(NC(=S)NCc2ccc[nH]2)cc1 [Example B10] | 160 nM
15 | CC(C)Oc1ccc(NC(=S)NCc2cccs2)cn1 [Example B11] | 220 nM
16 | CC(C)Oc1ccc(NC(=S)NCc2cccn2C)cc1 [Example B2] | 2590 nM
17 | Cc1cc(C)c(S(=O)(=O)NCc2ccncc2)c(C)c1 [Example B43] | 760 nM
18 | CC(C)Oc1ccc(NC(=S)NCc2nccs2)cc1 [Example B3] | 1380 nM
19 | CC(=O)c1ccc(NC(=S)NCc2ccoc2)cc1 [Example B37] | 7450 nM
20 | CC(C)Oc1ccc(NC(=S)NCc2cccnc2)cc1 [Example B35] | 6710 nM
21 | CC(C)(C)c1ccc(NC(=S)NCc2ccc[nH]2)cc1 [Example B27] | 1710 nM
22 | C=Cc1ccc(NC(=S)NCc2ccc[nH]2)cc1 [Example B24] | 870 nM
23 | O=S(=O)(NCc1ccncc1)c1ccc(F)cc1 [Example B42] | 6500 nM
24 | CCOc1ccc(NC(=S)NCc2ccc(C)o2)cc1 [Example B28] | 1910 nM
25 | C=COc1ccc(NC(=S)NCc2ccc[nH]2)cc1 [Example B15] | 180 nM
26 | CC(C)Nc1ccc(NC(=S)NCc2ccc[nH]2)cc1 [Example B21] | 630 nM
27 | S=C(NCc1ccc[nH]1)Nc1ccc(SC2CC2)cc1 [Example B18] | 410 nM
28 | CCc1ccc(NC(=S)NCc2ccoc2)cc1 [Example B6] | 1880 nM
29 | CC(C)Oc1ccc(NC(=S)NCc2ccc[nH]2)cn1 [Example B12] | 340 nM
30 | CCOc1ccc(NC(=S)NCc2coc(C)c2)cc1 [Example B4] | 1440 nM
31 | CCCCOc1ccc(S(=O)(=O)Nc2cccnc2)cc1 [Example B46] | 2190 nM
32 | COc1ccc(CNC(=S)NC(=O)c2ccccc2Cl)cc1 [Example B9] | 4900 nM
33 | Cc1cc(CNC(=S)Nc2ccc(OC(C)C)cc2)no1 [Example B7] | 1890 nM

Continued, values first:

Row | EC50 | Compound
34 | 790 nM | S=C(NCc1ccc[nH]1)Nc1ccc2c(c1)CCC2 [Example B23]
35 | 210 nM | CCSc1ccc(NC(=S)NCc2ccc[nH]2)cc1 [Example B16]
36 | 7000 nM | C#Cc1ccc(NC(=S)NCc2cccs2)cc1 [Example B36]
37 | 8500 nM | OCCSc1ccc(NC(=S)NCc2ccc[nH]2)cc1 [Example B39]
38 | 160 nM | C=CCOc1ccc(NC(=S)NCc2ccc[nH]2)cc1 [Example B14]
39 | 2180 nM | COc1c(S(=O)(=O)NCc2ccncc2)ccc(Cl)c1Cl [Example B45]
40 | 930 nM | CCOc1ccc(S(=O)(=O)NCc2ccncc2)cc1 [Example B44]
41 | 7970 nM | COC(=O)COc1ccc(S(=O)(=O)Nc2ccc3c(c2)OCCO3)cc1 [Example B48]
42 | 260 nM | COc1cc(OC)c(CNC(=S)Nc2ccc(OC(C)C)cc2)c(OC)c1 [Example B1]
43 | 11600 nM | S=C(NCc1ccoc1)Nc1ccc2c(c1)OCO2 [Example B40]
44 | 8170 nM | S=C(NCc1ccc[nH]1)Nc1ccc(N2CCOCC2)cc1 [Example B38]
45 | 3860 nM | CC(C)Oc1ccc(NC(=S)NCc2ccno2)cc1 [Example B30]
46 | 1290 nM | CCn1cccc1CNC(=S)Nc1ccc(OC(C)C)cc1 [Example B13]
47 | 1500 nM | CN(C)c1ccc(NC(=S)NCc2cccs2)cc1 [Example B25]
48 | 2940 nM | COC(=O)c1ccc(NC(=S)NCc2cccs2)cc1 [Example B29]
49 | 670 nM | FC(F)(F)c1ccc(NC(=S)NCc2ccc[nH]2)c(Cl)c1 [Example B22]
50 | 1530 nM | S=C(NCc1cccs1)Nc1ccc(-n2cccn2)cc1 [Example B26]
51 | 430 nM | CSc1ccc(NC(=S)NCc2ccc[nH]2)cc1 [Example B19]
52 | 2940 nM | COc1ccc(S(=O)(=O)Nc2ccc3nn(C)cc3c2)cc1 [Example B47]
53 | 5190 nM | COc1ccc(NC(=S)NCc2ccc[nH]2)c(C)c1 [Example B32]

From patent publication US20060257543A1, “Molecules comprising linked organic moieties as flavor modifiers for comestible compositions” (priority 2005, published 2006)
